According to ChEMBL document CHEMBL4507263, “Data for DCP probe BAY-474” (2021):

Legend:
[1] = target: Rho-associated protein kinase 1 (Homo sapiens) (UniProt Q13464); test: ROCK-I (h) Millipore kinase activity assay; settings: Compound concentration 1.0 uM
[2] = target: Tyrosine-protein kinase Fer (Homo sapiens) (UniProt P16591); test: Fer (h) Millipore kinase activity assay; settings: Compound concentration 1.0 uM
[3] = target: Myotonin-protein kinase (Homo sapiens) (UniProt Q09013); test: DMPK (h) Millipore kinase activity assay; settings: Compound concentration 1.0 uM
[4] = target: Rho-associated protein kinase 2 (Homo sapiens) (UniProt O75116); test: ROCK-II (h) Millipore kinase activity assay; settings: Compound concentration 1.0 uM
[5] = target: Acetylcholine receptor subunit alpha (Homo sapiens) (UniProt P02708); test: Inhibition of Nicotinic Acetylcholine D1, Bungarotoxin at 10 µM in the Eurofins-Panlabs radioligand binding assay (Eurofins_assay_258700); settings: Compound concentration 10.0 uM
[6] = target: Neuropeptide Y receptor type 1 (Homo sapiens) (UniProt P25929); test: Inhibition of Neuropeptide Y Y1 at 10 µM in the Eurofins-Panlabs radioligand binding assay (Eurofins_assay_257010); settings: Compound concentration 10.0 uM
[7] = target: Maternal embryonic leucine zipper kinase (Homo sapiens) (UniProt Q14680); test: MELK (h) Millipore kinase activity assay; settings: Compound concentration 1.0 uM
[8] = target: Histamine H3 receptor (Homo sapiens) (UniProt Q9Y5N1); settings: Compound concentration 10.0 uM
Chain of Histamine H3 receptor (Homo sapiens) (Q9Y5N1 whole entry): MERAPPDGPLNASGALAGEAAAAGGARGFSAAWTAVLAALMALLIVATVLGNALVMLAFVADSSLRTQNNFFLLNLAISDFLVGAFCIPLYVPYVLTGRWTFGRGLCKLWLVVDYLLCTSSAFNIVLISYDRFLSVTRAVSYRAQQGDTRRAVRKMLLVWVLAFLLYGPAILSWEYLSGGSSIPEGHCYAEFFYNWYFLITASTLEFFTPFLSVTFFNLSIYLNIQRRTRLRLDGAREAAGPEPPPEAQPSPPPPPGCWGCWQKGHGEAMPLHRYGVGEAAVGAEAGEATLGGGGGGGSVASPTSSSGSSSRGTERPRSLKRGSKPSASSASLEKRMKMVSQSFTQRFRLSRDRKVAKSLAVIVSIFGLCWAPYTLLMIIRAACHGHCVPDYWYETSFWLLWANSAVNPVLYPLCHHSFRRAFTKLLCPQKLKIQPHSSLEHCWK

[9] = target: Ephrin type-A receptor 1 (Homo sapiens) (UniProt P21709); test: EphA1 (h) Millipore kinase activity assay; settings: Compound concentration 1.0 uM
[10] = target: Protein kinase C epsilon type (Homo sapiens) (UniProt Q02156); test: PKCepsilon (h) Millipore kinase activity assay; settings: Compound concentration 1.0 uM
Chain of Protein kinase C epsilon type (Homo sapiens) (Q02156 whole entry): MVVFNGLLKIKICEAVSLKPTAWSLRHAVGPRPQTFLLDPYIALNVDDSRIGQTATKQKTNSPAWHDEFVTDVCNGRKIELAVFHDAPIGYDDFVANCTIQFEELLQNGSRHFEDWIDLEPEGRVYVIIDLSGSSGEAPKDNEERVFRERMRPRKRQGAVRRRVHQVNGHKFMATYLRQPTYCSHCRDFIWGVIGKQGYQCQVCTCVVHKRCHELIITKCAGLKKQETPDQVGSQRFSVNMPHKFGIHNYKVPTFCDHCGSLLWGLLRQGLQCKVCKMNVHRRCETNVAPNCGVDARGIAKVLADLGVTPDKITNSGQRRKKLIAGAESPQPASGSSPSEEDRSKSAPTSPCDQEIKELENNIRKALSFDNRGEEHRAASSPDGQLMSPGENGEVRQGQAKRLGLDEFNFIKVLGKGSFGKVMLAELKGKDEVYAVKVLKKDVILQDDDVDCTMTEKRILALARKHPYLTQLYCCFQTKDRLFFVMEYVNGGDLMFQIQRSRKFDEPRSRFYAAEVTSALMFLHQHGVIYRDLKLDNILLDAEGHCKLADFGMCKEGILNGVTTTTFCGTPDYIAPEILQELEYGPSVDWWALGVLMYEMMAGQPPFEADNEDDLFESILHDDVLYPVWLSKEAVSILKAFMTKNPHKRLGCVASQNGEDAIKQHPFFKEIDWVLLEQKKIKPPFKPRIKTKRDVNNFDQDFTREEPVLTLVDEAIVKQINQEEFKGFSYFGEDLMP

[11] = target: Mu-type opioid receptor (Homo sapiens) (UniProt P35372); settings: Compound concentration 10.0 uM
Chain of Mu-type opioid receptor (Homo sapiens) (P35372 whole entry): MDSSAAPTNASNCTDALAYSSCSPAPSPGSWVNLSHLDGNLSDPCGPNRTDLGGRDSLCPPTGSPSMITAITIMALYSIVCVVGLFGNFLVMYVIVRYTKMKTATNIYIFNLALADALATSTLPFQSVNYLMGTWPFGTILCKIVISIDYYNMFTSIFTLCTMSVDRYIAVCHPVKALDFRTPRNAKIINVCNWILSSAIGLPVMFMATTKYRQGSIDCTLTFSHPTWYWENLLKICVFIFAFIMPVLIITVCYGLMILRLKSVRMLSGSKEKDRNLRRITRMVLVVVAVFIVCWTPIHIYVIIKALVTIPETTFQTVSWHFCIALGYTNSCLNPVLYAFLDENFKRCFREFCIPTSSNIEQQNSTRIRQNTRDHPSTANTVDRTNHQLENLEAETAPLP

[12] = target: Serine/threonine-protein kinase PAK 4 (Homo sapiens) (UniProt O96013); test: PAK4 (h) Millipore kinase activity assay; settings: Compound concentration 1.0 uM
[13] = target: Mitogen-activated protein kinase kinase kinase 5 (Homo sapiens) (UniProt Q99683); test: ASK1 (h) Millipore kinase activity assay; settings: Compound concentration 1.0 uM
[14] = target: NUAK family SNF1-like kinase 1 (Homo sapiens) (UniProt O60285); test: ARK5 (h) Millipore kinase activity assay; settings: Compound concentration 1.0 uM
[15] = target: Macrophage-stimulating protein receptor (Homo sapiens) (UniProt Q04912); test: Ron (h) Millipore kinase activity assay; settings: Compound concentration 1.0 uM
[16] = target: Mitogen-activated protein kinase 6 (Homo sapiens) (UniProt Q16659); settings: Compound concentration 1000.0 nM
[17] = target: Ephrin type-B receptor 3 (Homo sapiens) (UniProt P54753); settings: Compound concentration 1000.0 nM
Chain of Ephrin type-B receptor 3 (Homo sapiens) (P54753 whole entry): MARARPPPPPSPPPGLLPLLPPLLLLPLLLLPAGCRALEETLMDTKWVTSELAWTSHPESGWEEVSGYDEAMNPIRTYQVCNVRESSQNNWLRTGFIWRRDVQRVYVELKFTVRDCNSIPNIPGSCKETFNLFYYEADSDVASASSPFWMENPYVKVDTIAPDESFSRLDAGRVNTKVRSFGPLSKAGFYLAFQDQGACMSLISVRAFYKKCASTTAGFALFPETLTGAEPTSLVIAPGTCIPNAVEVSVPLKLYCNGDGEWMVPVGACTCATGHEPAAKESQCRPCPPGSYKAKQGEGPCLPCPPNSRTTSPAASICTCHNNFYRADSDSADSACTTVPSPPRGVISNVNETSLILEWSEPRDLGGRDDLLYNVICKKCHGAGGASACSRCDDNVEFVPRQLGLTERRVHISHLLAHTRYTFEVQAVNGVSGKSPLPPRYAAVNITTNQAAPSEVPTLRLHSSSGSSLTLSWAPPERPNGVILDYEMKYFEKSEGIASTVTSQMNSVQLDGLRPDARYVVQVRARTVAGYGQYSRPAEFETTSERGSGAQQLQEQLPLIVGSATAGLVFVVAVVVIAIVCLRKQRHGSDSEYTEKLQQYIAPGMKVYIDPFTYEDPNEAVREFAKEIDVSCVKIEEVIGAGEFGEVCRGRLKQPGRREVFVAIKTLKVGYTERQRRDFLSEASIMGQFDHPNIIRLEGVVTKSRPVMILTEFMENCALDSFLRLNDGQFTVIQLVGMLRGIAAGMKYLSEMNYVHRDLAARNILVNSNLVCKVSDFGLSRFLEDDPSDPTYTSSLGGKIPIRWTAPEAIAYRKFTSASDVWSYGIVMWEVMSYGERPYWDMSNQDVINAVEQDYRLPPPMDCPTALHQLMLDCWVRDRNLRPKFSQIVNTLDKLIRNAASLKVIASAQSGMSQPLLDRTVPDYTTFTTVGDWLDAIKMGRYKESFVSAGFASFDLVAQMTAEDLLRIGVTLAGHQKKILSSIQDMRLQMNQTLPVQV

[18] = target: Death-associated protein kinase 3 (Homo sapiens) (UniProt O43293); settings: Compound concentration 1000.0 nM
[19] = target: Cyclin-dependent kinase 4 (Homo sapiens) (UniProt P11802); settings: Compound concentration 1000.0 nM
Chain of Cyclin-dependent kinase 4 (Homo sapiens) (P11802 whole entry): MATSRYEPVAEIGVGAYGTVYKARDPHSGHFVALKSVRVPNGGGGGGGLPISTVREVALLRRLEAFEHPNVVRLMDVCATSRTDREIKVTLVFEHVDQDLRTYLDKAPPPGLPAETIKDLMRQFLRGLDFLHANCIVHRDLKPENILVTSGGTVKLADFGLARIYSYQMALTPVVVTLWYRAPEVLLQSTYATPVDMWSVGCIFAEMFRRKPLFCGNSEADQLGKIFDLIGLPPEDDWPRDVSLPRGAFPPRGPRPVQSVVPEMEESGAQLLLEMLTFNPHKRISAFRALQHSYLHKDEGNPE

[20] = target: Myosin-IIIb (Homo sapiens) (UniProt Q8WXR4); settings: Compound concentration 1000.0 nM
[21] = target: NT-3 growth factor receptor (Homo sapiens) (UniProt Q16288); settings: Compound concentration 1000.0 nM
[22] = target: Cyclin-dependent kinase 5 (Homo sapiens) (UniProt Q00535); settings: Compound concentration 1000.0 nM
Chain of Cyclin-dependent kinase 5 (Homo sapiens) (Q00535 whole entry, looked up): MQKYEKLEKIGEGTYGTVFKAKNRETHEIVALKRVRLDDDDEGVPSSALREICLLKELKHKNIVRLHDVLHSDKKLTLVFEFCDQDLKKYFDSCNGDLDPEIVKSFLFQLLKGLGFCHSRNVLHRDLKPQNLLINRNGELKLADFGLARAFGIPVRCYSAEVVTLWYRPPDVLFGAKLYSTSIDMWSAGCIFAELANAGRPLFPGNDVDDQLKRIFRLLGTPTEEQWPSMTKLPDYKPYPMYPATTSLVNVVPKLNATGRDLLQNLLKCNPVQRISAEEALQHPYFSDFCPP

[23] = target: Cyclin-dependent kinase 11A (Homo sapiens) (UniProt Q9UQ88); settings: Compound concentration 1000.0 nM
[24] = target: Cyclin-dependent kinase 4 (Homo sapiens) (UniProt P11802); settings: Compound concentration 1000.0 nM; remark: listed apart in the source
[25] = target: Serine/threonine-protein kinase PAK 2 (Homo sapiens) (UniProt Q13177); settings: Compound concentration 1000.0 nM
[26] = target: Mitogen-activated protein kinase 3 (Homo sapiens) (UniProt P27361); settings: Compound concentration 1000.0 nM
[27] = target: Serine/threonine-protein kinase NLK (Homo sapiens) (UniProt Q9UBE8); settings: Compound concentration 1000.0 nM
[28] = target: Mitogen-activated protein kinase kinase kinase 3 (Homo sapiens) (UniProt Q99759); settings: Compound concentration 1000.0 nM
[29] = target: Ribosomal protein S6 kinase alpha-4 (Homo sapiens) (UniProt O75676); settings: Compound concentration 1000.0 nM
[30] = target: Tyrosine-protein kinase ABL2 (Homo sapiens) (UniProt P42684); settings: Compound concentration 1000.0 nM
[31] = target: Aurora kinase A (Homo sapiens) (UniProt O14965); settings: Compound concentration 1000.0 nM
[32] = target: Mitogen-activated protein kinase 1 (Homo sapiens) (UniProt P28482); settings: Compound concentration 1000.0 nM
[33] = target: Serine/threonine-protein kinase Nek7 (Homo sapiens) (UniProt Q8TDX7); settings: Compound concentration 1000.0 nM
[34] = target: Serine/threonine-protein kinase MRCK alpha (Homo sapiens) (UniProt Q5VT25); settings: Compound concentration 1000.0 nM
[35] = target: Tyrosine-protein kinase JAK3 (Homo sapiens) (UniProt P52333); settings: Compound concentration 1000.0 nM
[36] = target: Serine/threonine-protein kinase D3 (Homo sapiens) (UniProt O94806); settings: Compound concentration 1000.0 nM
[37] = target: Serine/threonine-protein kinase LATS2 (Homo sapiens) (UniProt Q9NRM7); settings: Compound concentration 1000.0 nM
[38] = target: Protein-tyrosine kinase 2-beta (Homo sapiens) (UniProt Q14289); settings: Compound concentration 1000.0 nM
[39] = test system: Epidermal growth factor receptor (Homo sapiens), P00533 [UNDEFINED MUTATION]; settings: Compound concentration 1000.0 nM
[40] = target: Cyclin-dependent kinase 11B (Homo sapiens) (UniProt P21127); settings: Compound concentration 1000.0 nM
[41] = target: Serine/threonine-protein kinase 38-like (Homo sapiens) (UniProt Q9Y2H1); settings: Compound concentration 1000.0 nM
[42] = target: ALK tyrosine kinase receptor (Homo sapiens) (UniProt Q9UM73); settings: Compound concentration 1000.0 nM
Chain of ALK tyrosine kinase receptor (Homo sapiens) (Q9UM73 19-1620 limits assumed): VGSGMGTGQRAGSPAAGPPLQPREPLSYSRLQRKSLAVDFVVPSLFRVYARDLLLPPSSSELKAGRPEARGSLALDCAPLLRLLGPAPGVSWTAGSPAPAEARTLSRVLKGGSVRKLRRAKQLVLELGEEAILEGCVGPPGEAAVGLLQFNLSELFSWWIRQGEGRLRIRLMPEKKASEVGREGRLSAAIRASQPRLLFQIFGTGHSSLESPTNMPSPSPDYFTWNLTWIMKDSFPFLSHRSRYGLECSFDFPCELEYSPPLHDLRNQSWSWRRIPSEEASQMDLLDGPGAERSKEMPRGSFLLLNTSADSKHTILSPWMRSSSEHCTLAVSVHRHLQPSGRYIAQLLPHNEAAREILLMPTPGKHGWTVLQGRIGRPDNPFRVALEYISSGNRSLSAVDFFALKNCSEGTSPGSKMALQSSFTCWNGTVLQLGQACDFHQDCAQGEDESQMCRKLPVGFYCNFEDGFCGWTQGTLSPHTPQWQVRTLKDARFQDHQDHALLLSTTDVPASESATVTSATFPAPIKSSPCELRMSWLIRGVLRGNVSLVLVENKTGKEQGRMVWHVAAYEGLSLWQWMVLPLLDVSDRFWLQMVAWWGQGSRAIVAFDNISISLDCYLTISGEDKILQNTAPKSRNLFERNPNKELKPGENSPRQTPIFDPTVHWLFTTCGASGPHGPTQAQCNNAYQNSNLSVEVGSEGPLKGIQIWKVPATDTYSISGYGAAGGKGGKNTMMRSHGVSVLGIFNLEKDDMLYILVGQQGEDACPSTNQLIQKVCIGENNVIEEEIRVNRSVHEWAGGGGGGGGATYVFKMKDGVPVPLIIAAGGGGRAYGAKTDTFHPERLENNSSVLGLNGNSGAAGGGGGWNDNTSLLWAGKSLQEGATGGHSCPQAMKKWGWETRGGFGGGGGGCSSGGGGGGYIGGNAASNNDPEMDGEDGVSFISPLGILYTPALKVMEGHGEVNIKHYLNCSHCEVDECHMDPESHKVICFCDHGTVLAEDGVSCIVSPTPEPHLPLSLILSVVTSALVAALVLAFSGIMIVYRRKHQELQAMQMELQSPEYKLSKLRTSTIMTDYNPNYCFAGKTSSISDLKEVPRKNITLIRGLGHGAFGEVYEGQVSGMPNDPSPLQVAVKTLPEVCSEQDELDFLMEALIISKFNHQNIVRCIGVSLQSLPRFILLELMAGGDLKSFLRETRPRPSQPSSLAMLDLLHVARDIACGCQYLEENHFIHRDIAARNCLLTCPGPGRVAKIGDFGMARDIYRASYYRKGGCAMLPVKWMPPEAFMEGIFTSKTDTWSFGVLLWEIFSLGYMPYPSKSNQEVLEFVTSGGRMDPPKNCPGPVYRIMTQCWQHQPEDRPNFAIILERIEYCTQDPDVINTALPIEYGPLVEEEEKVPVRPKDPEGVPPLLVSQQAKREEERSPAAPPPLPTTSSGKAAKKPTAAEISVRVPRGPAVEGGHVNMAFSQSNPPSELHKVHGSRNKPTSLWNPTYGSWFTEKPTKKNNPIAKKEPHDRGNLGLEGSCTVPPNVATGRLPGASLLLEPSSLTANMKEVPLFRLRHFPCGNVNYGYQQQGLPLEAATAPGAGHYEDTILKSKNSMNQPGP

[43] = target: Serine/threonine-protein kinase TAO1 (Homo sapiens) (UniProt Q7L7X3); settings: Compound concentration 1000.0 nM
[44] = target: Receptor-type tyrosine-protein kinase FLT3 (Homo sapiens) (UniProt P36888); settings: Compound concentration 1000.0 nM
[45] = target: 5-hydroxytryptamine receptor 2C (Homo sapiens, UniProt P28335); test: GPCRScan assay: inhibition of 5-HT2C; set-up: radioligand conc. used [nm] 1.0 – 2.5, parental cells HEK T
[46] = target: G protein-coupled receptor kinase 3 (Homo sapiens) (UniProt P35626); settings: Compound concentration 1000.0 nM

**Q.** With `CC1=C(C#N)C(c2ccc3[nH]nc(C)c3c2)C(C#N)=C(C)N1` [BAY-474] as the molecule, how does the inhibition [1] read?
**A.** Its inhibition is 1%.

**Q.** And the inhibition [2]?
**A.** The inhibition was 22%.

**Q.** What about the inhibition [3] of the same molecule?
**A.** The inhibition was 3%.

**Q.** And the inhibition [4]?
**A.** The inhibition was -3%.

**Q.** And the inhibition [5]?
**A.** The inhibition was 0%.

**Q.** What about the inhibition [6] of the same molecule?
**A.** The inhibition was 1%.

**Q.** And the inhibition [7]?
**A.** Its inhibition is 26%.

**Q.** What about the inhibition [8] of the same molecule?
**A.** The inhibition was -6%.

**Q.** And the inhibition [9]?
**A.** The inhibition was 0%.

**Q.** And the inhibition [10]?
**A.** The inhibition was 26%.

**Q.** What about the inhibition [11] of the same molecule?
**A.** Its inhibition is -9%.

**Q.** What about the inhibition [12] of the same molecule?
**A.** The inhibition was 3%.

**Q.** What about the inhibition [13] of the same molecule?
**A.** The inhibition was -6%.

**Q.** What about the inhibition [14] of the same molecule?
**A.** The inhibition was 22%.

**Q.** And the inhibition [15]?
**A.** Its inhibition is 8%.

**Q.** `CC1=C(C#N)[C@@H](c2ccc3[nH]nc(C)c3c2)C(C#N)=C(c2ccc(Cl)cc2)N1` [BAY-827] was tested. Which residual activity [16] did it give?
**A.** Its residual activity is 100%.

**Q.** What about the residual activity [17] of the same molecule?
**A.** The residual activity was 100%.

**Q.** And the residual activity [18]?
**A.** The residual activity was 100%.

**Q.** And the residual activity [19]?
**A.** The residual activity was 78.8%.

**Q.** And the residual activity [20]?
**A.** Its residual activity is 78%.

**Q.** What about the residual activity [21] of the same molecule?
**A.** Its residual activity is 100%.

**Q.** And the residual activity [22]?
**A.** Its residual activity is 100%.

**Q.** And the residual activity [23]?
**A.** Its residual activity is 90%.

**Q.** What about the residual activity [24] of the same molecule?
**A.** Its residual activity is 96.1%.

**Q.** And the residual activity [25]?
**A.** Its residual activity is 100%.

**Q.** And the residual activity [26]?
**A.** The residual activity was 100%.

**Q.** And the residual activity [27]?
**A.** The residual activity was 78.9%.

**Q.** And the residual activity [28]?
**A.** Its residual activity is 100%.

**Q.** And the residual activity [29]?
**A.** Its residual activity is 100%.

**Q.** And the residual activity [30]?
**A.** Its residual activity is 100%.

**Q.** And the residual activity [31]?
**A.** Its residual activity is 100%.

**Q.** And the residual activity [32]?
**A.** The residual activity was 100%.

**Q.** And the residual activity [33]?
**A.** The residual activity was 87.4%.

**Q.** What about the residual activity [34] of the same molecule?
**A.** The residual activity was 82.2%.

**Q.** What about the residual activity [35] of the same molecule?
**A.** The residual activity was 100%.

**Q.** What about the residual activity [36] of the same molecule?
**A.** Its residual activity is 100%.

**Q.** What about the residual activity [37] of the same molecule?
**A.** The residual activity was 100%.

**Q.** And the residual activity [38]?
**A.** The residual activity was 100%.

**Q.** And the residual activity [39]?
**A.** Its residual activity is 79.5%.

**Q.** What about the residual activity [40] of the same molecule?
**A.** Its residual activity is 91.6%.

**Q.** What about the residual activity [41] of the same molecule?
**A.** The residual activity was 100%.

**Q.** What about the residual activity [42] of the same molecule?
**A.** The residual activity was 84.7%.

**Q.** What about the residual activity [43] of the same molecule?
**A.** The residual activity was 100%.

**Q.** What about the residual activity [44] of the same molecule?
**A.** Its residual activity is 100%.

**Q.** And the Ki [45]?
**A.** The Ki was 10 µM.

**Q.** And the residual activity [46]?
**A.** Its residual activity is 85.3%.
